In this assay the target is T1, AMPK A2/B1/G1 (Homo sapiens, UniProt P54646).
T1 construct: purchased Thermo Fisher Scientific (Life Technologies) SelectScreen
The assay is described as follows: SelectScreen Z'LYTE. It is filed as biochemical. Summed up: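 Percent values come from Thermo SelectScreen profiling of NU5455, combining activity and binding assays. CSF1R was run in Z'LYTE format at Km app ATP, and CAMK1 in Adapta format with ATP listed at 10.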

This is an account of results in paper PMC6934184, “Selective DNA-PKcs inhibition extends the therapeutic index of localized radiotherapy and chemotherapy” (The Journal of Clinical Investigation, 2019).

A word on the inhibition: it is the percentage by which the read-out fell short of the control.

Each structure is given as a SMILES string.

T1 sequence (P54646 whole entry): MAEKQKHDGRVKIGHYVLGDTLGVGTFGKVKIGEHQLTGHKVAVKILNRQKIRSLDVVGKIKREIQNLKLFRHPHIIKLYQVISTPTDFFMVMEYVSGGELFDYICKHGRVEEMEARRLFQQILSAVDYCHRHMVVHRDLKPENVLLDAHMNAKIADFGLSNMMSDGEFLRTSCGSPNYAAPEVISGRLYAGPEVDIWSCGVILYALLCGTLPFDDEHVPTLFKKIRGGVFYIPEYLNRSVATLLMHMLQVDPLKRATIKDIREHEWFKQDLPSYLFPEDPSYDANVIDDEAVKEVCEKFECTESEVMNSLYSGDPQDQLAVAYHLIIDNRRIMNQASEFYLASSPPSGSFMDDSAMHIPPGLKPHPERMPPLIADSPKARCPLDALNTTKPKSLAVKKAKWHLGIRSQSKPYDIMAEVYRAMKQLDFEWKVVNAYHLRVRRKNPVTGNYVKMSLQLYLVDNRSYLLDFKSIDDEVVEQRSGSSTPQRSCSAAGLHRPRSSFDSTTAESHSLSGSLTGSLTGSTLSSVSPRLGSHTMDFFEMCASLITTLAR
T1 sequence (Q9Y478 whole entry partner): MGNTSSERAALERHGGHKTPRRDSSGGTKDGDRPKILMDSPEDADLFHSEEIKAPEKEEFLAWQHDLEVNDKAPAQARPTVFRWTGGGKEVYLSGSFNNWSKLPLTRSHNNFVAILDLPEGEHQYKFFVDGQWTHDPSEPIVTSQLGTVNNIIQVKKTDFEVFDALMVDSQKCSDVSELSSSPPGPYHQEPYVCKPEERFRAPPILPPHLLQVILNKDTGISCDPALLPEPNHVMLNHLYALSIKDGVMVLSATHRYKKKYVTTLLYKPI
T1 sequence (P54619 whole entry partner): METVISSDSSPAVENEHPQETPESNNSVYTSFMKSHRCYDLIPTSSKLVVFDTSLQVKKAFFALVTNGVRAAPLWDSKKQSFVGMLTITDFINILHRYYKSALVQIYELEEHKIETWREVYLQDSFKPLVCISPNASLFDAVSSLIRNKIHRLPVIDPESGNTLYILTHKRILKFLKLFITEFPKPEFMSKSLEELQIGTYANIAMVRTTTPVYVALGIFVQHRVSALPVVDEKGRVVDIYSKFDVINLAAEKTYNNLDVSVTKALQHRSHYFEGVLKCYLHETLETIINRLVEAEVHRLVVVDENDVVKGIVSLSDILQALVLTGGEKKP

The molecule `CN(C(=O)CN1CCOCC1)c1ccc2sc3c(-c4cccc5c(=O)cc(N6CC7CCC(C6)O7)oc45)cccc3c2c1` [NU5455] had an inhibition at 1 µM of 2.6%.
